{
  "source": "patent US20260158002A1",
  "about": "“APPLICATION OF COMPOSITION CONTAINING EDARAVONE AND DEXBORNEOL IN IMPROVING OR TREATING COGNITIVE IMPAIRMENT” (NEURODAWN PHARMACEUTICAL CO., LTD., priority 2021, published 2026)",
  "key": {"[1]": {"tested_on": "mouse model of AlCl3/D-galactose-induced cognitive impairment", "details": "intraperitoneal for 15 consecutive days; cited from earlier work"}, "[2]": {"tested_on": "rat model of scopolamine-induced dementia", "details": "oral 15 mg/kg/day for 7 consecutive days; cited from earlier work"}, "[3]": {"tested_on": "5×FAD transgenic mice", "assay": "AD pathology examination (immunohistochemical test) in 5×FAD transgenic mice", "assay_type": "in vivo, mouse", "details": "5×FAD mice; edaravone 6 mg/kg or composition 7.5 mg/kg i.p. once daily for 16 weeks", "procedure": "(§1) In the experiment, the animals were divided into 4 groups. Administration was performed on the mice in each group from 8 weeks of age. After 16 weeks of continuous daily administration, water maze and Y maze behavioral tests were performed. After the behavioral tests were completed, the animals were sacrificed, and brain slice electrophysiology and AD pathology within the brain were tested, including the test of Aβ plaques, biomarkers such as GFAP and Iba-1, p-Tau, etc.\nAfter the behavioral test of animals was completed, the mice were subjected to cardiac perfusion followed by brain removal, and the brain was fixed in 4% paraformaldehyde for 24 h, dehydrated with 30% sucrose, snap-frozen and embedded with an embedding medium, and sliced (thickness […]). The brain slices having the hippocampal region were selected, washed with PBS for 5 min×3 times, permeabilized with 0.2% Triton, washed with PBS for 7 min×3 times, and blocked with Blocking buffer (2.5% BSA, 0.3% Triton) for 1 h. The brain slices were placed in a primary antibody overnight at 4° C. On the second day, the brain slices in the primary antibody were taken out, washed with PBS for 5 min×3 times, placed in a second antibody, and incubated for 1 h at room temperature in the dark. The brain slices were taken out and washed with PBS for 5 min×3 times. An anti-fluorescence quencher containing DAPI was added dropwise, and the slices were mounted.\nData were expressed as Mean±SEM. Statistical analysis between groups was performed using Prism software (GraphPad, USA): One-way or Two-way ANOVA was used for comparison of two or more groups, and then Fisher's LSD test was selected for analysis. P<0.05 indicated significant difference. ##p<0.01, ###p<0.001, ####p<0.0001, comparison with WT group; *p<0.05, **p<0.01, […], ****p<0.0001, comparison with model group; & p<0.05, &&p<0.01, &&&&p<0.0001, comparison between two groups indicated."}, "[4]": {"tested_on": "primary cortical neurons", "assay": "Aβ1-42-induced primary cortical neuronal injury test (Luminescent Cell Viability Assay)", "assay_type": "cell-based, rat", "details": "single agent, pre-incubation 30 min before oligomerized Aβ1-42 50 μM, 24 h; edaravone 3.7 to 100 μM, dexborneol 1.2 to 100 μM; vs DMSO group", "procedure": "A SD pregnant rat at 18 days of pregnancy was sacrificed by cervical dislocation, the uteruses of the rat were dissected, the brain of E18 fetal rat was taken out, the cerebral cortical tissue of the fetal rat was isolated into an ice-cold DMEM, the meninge and blood vessels were removed from the cortical tissue under a dissecting microscope, the cortical tissue was transferred to an ice-cold DMEM and minced (about 1 mm^3), and digested with trypsin at 37° C. for 10 min, the digestion was terminated with FBS, a Pasteur pipette was used to perform gentle pipetting and dispersing, and screening was then performed using a 200-mesh sieve. […] The cells were counted by a hemocytometer, diluted to 5×10^5 cells/ml with a complete medium, and seeded in a 96-well plate coated with PDL (100 μL/well) for culture. […]\nThe medium of the in vitro matured primary neurons was replaced with a complete medium containing different concentrations (1.2, 3.7, 11.1, 33.3, 100.0 μM) of edaravone (E), dexborneol (B) or an edaravone and dexborneol composition (EB), after incubation at 37° C. for 30 min, oligomerized Aβ1-42 (final concentration of 50 μM) was added, the culture was continued for 24 h, and the neuronal viability was tested. […] LUMbackground is the background reading of the cell-free medium well into which Luminescent Cell Viability Assay kit is added. […]"}, "[5]": {"tested_on": "SH-SY5Y and primary cortical neurons", "details": "cited from earlier work"}, "[6]": {"tested_on": "5×FAD transgenic mice", "assay": "Y maze test in 5×FAD transgenic mice", "assay_type": "in vivo, mouse", "details": "5×FAD mice; edaravone 6 mg/kg or composition 7.5 mg/kg i.p. once daily for 16 weeks", "procedure": "as §1\n5×FAD: edaravone group: ten 5×FAD mice were given edaravone ( ? ®) 6 mg/kg via i.p. at a dose of 10.0 mL/kg once daily.\n5×FAD: composition group: ten 5×FAD mice were given 7.5 mg/kg edaravone and dexborneol concentrated solution for injection ( ? ®) (edaravone:dexborneol=4:1, containing 6 mg/kg edaravone and 1.5 mg/kg dexborneol) at a dose of 10.0 ml/kg once daily. […]\nTesting: After 1 h of training, the baffle was removed, the channel of the Y maze was wiped with alcohol to remove the odor of the previous mouse, the mouse to be tested was placed in the same position for 5 min and video recording was performed, and the number of times the mouse entered the newly opened arm as a percentage of the total number of times it entered the three arms was recorded in the test.\nData were expressed as Mean±SEM. […]"}, "[7]": {"tested_on": "ICV-STZ model rats", "details": "cited from earlier work"}, "[8]": {"tested_on": "APP/PS1 transgenic mouse model", "details": "cited from earlier work"}},
  "data": [
    {"compound": "CC1=NN(c2ccccc2)C(=O)C1", "note": "[edaravone, 3-methyl-1-phenyl-2-pyrazolin-5-one]", "values": [
      {"measurement": "cognitive function in water maze test and step-down test", "setting": "[1]", "result": "significantly improves the cognitive function as tested by water maze test and step-down test"},
      {"measurement": "scopolamine-induced spatial learning and long-term memory impairments", "setting": "[2]", "result": "can improve scopolamine-induced spatial learning and long-term memory impairments"},
      {"measurement": "astrogliosis within the brain, vs solvent control group", "setting": "[3]", "result": "could significantly decrease"},
      {"measurement": "hippocampal tau protein hyperphosphorylation, vs solvent control group", "setting": "[3]", "result": "could significantly decrease"},
      {"measurement": "microgliosis within the brain, vs solvent control group", "setting": "[3]", "result": "could significantly decrease"},
      {"measurement": "β-amyloid plaques within the brain, vs solvent control group", "setting": "[3]", "result": "could significantly decrease"},
      {"measurement": "inhibiting Aβ-induced neurotoxicity, increasing the cell viability", "setting": "[4]", "result": "capable of inhibiting Aβ-induced neurotoxicity in a concentration-dependent manner"},
      {"measurement": "neurotoxicity of Aβ1-42", "setting": "[5]", "result": "capable of reducing the neurotoxicity of Aβ1-42 to SH-SY5Y and primary cortical neurons"},
      {"measurement": "number of times the mouse entered the newly opened arm in Y maze, vs solvent control", "setting": "[6]", "result": "could significantly increase the number of times the mouse entered the newly opened arm"},
      {"measurement": "spatial learning and memory (Morris water maze) and non-spatial long-term memory (step-down passive avoidance)", "setting": "[7]; intraperitoneal 9 mg/kg/day for 14 consecutive days", "result": "can significantly improve the spatial learning and memory"},
      {"measurement": "cognitive function in water maze test and passive avoidance test", "setting": "[7]; oral 1, 3 and 10 mg/kg/day for 28 consecutive days", "result": "can also improve the cognitive function of ICV-STZ rats in water maze test and passive avoidance test"},
      {"measurement": "deficits in the cognitive function in water maze test", "setting": "[8]; APP/PS1 mice, 12.6 mg/kg intraperitoneal twice a week, prophylactic (3 to 9 months) and therapeutic (9 to 12 months)", "result": "can improve the deficits in the cognitive function in water maze test"},
      {"measurement": "cognitive function of aged transgenic mice", "setting": "[8]; APP/PS aged mice (14 to 17 months), oral with drinking water 8, 24 and 72 mg/kg/day", "result": "significantly improves the cognitive function of aged transgenic mice"},
      {"measurement": "Aβ plaque deposition within the brain and cognitive function", "setting": "[8]; mice aged 3-12 months, oral with drinking water 33.2 mg/kg/day", "result": "can also reduce Aβ plaque deposition within the brain and improve the cognitive function of mice"}
    ]}
  ]
}
